Assay results reported in ChEMBL document CHEMBL1201862, “PubChem BioAssay data set” (2004).
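How tested: cells in 96-well plates exposed to compound for 48 hours at five concentrations. Abbreviation: GI50, concentration required for 50% inhibition of growth.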 Calls of active or inactive are those of the source. Cut-off read from the data, not from the text of the source: active = GI50 up to about 1.1 µM and inactive = higher.

How the values were obtained:
Assay in all cases: NCI tumour cell line growth inhibition, 48 h
HOP-92 = tested on: HOP-92
SF-268 = tested on: SF-268
HT-29 = tested on: HT-29
Hs-578T = tested on: Hs-578T
MOLT-4 = tested on: MOLT-4
ACHN = tested on: ACHN
MDA-MB-435 = tested on: MDA-MB-435
RXF 393 = tested on: RXF 393
RPMI-8226 = tested on: RPMI-8226
UACC-257 = tested on: UACC-257
UACC-62 = tested on: UACC-62
SF-295 = tested on: SF-295
K562 = tested on: K562
SK-OV-3 = tested on: SK-OV-3
HCT-15 = tested on: HCT-15
SF-539 = tested on: SF-539
CAKI-1 = tested on: CAKI-1
MDA-MB-231 = tested on: MDA-MB-231
786-0 = tested on: 786-0
T47D = tested on: T47D

Sc1ncnc2nc[nH]c12 [MERCAPTOPURINE ANHYDROUS]
GI50 (HOP-92): 2.94 µM (inactive)
GI50 (SF-268): 4.11 µM (inactive)
GI50 (HT-29): 4.02 µM (inactive)
GI50 (Hs-578T): 14.2 µM (inactive)
GI50 (MOLT-4): 1.61 µM (inactive)
GI50 (ACHN): 6.27 µM (inactive)
GI50 (MDA-MB-435): 1.44 µM (inactive)
GI50 (RXF 393): 29.5 µM (inactive)
GI50 (RPMI-8226): 1.76 µM (inactive)
GI50 (UACC-257): 14.4 µM (inactive)
GI50 (UACC-62): 1.76 µM (inactive)
GI50 (SF-295): 5.81 µM (inactive)
GI50 (K562): 351 nM (active)
GI50 (SK-OV-3): 1.03 µM (active)
GI50 (HCT-15): 4.57 µM
GI50 (SF-539): 2.49 µM (inactive)
GI50 (CAKI-1): 3.21 µM (inactive)
GI50 (MDA-MB-231): 24.4 µM (inactive)
GI50 (786-0): 2.03 µM (inactive)
GI50 (T47D): 3.55 µM (inactive)
